The values below come from patent US20030004172A1, “Fused pyrimidinone matrix metalloproteinase inhibitors” (priority 2001, published 2003).

For this experiment, the target named is MMP-13CD (catalytic domain of collagenase-3) (Homo sapiens, UniProt P45452). In words: Thiopeptolide substrate hydrolysis inhibition assay, MMP-13CD. It is filed as biochemical. The following applies: Table I; thiopeptolide substrate, HEPES pH 7.0, 22° C.; read-out: MMP-13CD IC50. An excerpt:
Thiopeptolide substrates show virtually no decomposition or hydrolysis at or below neutral pH in the absence of a matrix metalloproteinase enzyme.
What is called IC50 is the concentration that gives 50% inhibition. On to `Cn1c(=O)n(Cc2ccc(Cl)nc2)c(=O)c2cc(C(=O)OCc3ccccc3)sc21` [Example 136, 3-(6-Chloro-pyridin-3-ylmethyl)-1-methyl-2,4-dioxo-1,2,3,4tetrahydro-thieno[2,3-d]pyrimidine-6-carboxylic acid benzyl ester], for which the IC50 is 0.051 µM.
The result for `Cc1ccc(CNC(=O)c2cc3c(=O)n(Cc4ccccc4)c(=O)n(C)c3s2)o1` [Example 346, 3-Benzyl-1-methyl-2,4-dioxo-1,2,3,4-tetrahydro-thieno[2,3-d]pyrimidine-6-carboxylic acid (5-methyl-furan-2-ylmethyl)-amide] reads 9.9 µM.
The result for `Cn1c(=O)n(Cc2ccccc2)c(=O)c2cc(C(=O)OCCC3CCCCN3)sc21` (stereo not drawn) [Example 195, 3-Benzyl-1-methyl-2,4-dioxo-1,2,3,4-tetrahydro-thieno[2,3-d]pyrimidine-6-carboxylic acid 2-piperidin-2-yl-ethyl ester] reads above 100 µM.
With `COc1cccc(CNC(=O)c2cc3c(=O)n(Cc4ccc5nonc5c4)c(=O)n(C)c3s2)c1` [Example 296], the IC50 was 0.0505 µM.
The result for `Cn1c(=O)n(Cc2ccccc2)c(=O)c2cc(C(=O)NC3CC3)sc21` [Example 215, 3-Benzyl-1-methyl-2,4-dioxo-1,2,3,4-tetrahydro-thieno[2,3-d]pyrimidine-6-carboxylic acid cyclopropylamide] reads 24 µM; that for `COc1cccc(CNC(=O)c2cc3c(=O)n(Cc4ccc(C5(C(=O)OC(C)(C)C)CC5)cc4)c(=O)n(C)c3s2)c1` [Example 93, 1-{4-[6-(3-Methoxy-benzylcarbamoyl)-1-methyl-2,4-dioxo-1,4-dihydro-2H-thieno[2,3-d]pyrimidin-3-ylmethyl]-phenyl}-cyclopropanecarboxylic acid tert-butyl ester], 0.111 µM.
In the case of `COc1cc(CNC(=O)c2cc3c(=O)[nH]c(=O)n(C)c3s2)ccn1` [Example 219, 1-methyl-2,4-dioxo-1,2,3,4-tetrahydro-thieno[2,3-d]pyrimidine-6-carboxylic acid (2-methoxy-pyridin-4-ylmethyl)-amide], the IC50 was 17 µM.
In the case of `COc1ccc(COC(=O)c2cc3c(=O)n(Cc4ccccc4)c(=O)n(C)c3s2)cc1` [Example 166, 3-Benzyl-1-methyl-2,4-dioxo-1,2,3,4-tetrahydro-thieno[2,3-d]pyrimidine-6-carboxylic acid 4-methoxy-benzyl ester], the IC50 turned out to be 0.92 µM.
The result for `Cn1c(=O)n(Cc2ccccc2)c(=O)c2cc(C(=O)NCc3cc(Cl)cc(Cl)c3)sc21` [Example 352, 3-Benzyl-1-methyl-2,4-dioxo-1,2,3,4-tetrahydro-thieno[2,3-d]pyrimidine-6-carboxylic acid 3 ,5-dichloro-benzylamide] reads above 100 µM.
As to `Cn1c(=O)n(Cc2ccccc2)c(=O)c2cc(C(=O)OC3CCOCC3)sc21` [Example 167, 3-Benzyl-1-methyl-2,4-dioxo-1,2,3,4-tetrahydro-thieno[2,3-d]pyrimidine-6-carboxylic acid tetrahydro-pyran-4-yl ester], the 50% inhibitory concentration (IC50) was determined as 26 µM.
The result for `COc1cccc(CNC(=O)c2cc3c(=O)n(CCNC(=O)c4ccccc4)c(=O)n(C)c3s2)c1` [Example 294] reads above 100 µM.
For `CSc1ccc(COC(=O)c2cc3c(=O)n(Cc4ccccc4)c(=O)n(C)c3s2)cc1` [Example 202, 3-Benzyl-1-methyl-2,4-dioxo-1,2,3,4-tetrahydro-thieno[2,3-d]pyrimidine-6-carboxylic acid 4-methylsulfanyl-benzyl ester], the half-inhibitory concentration (IC50) was 0.36 µM.
`Cn1c(=O)n(Cc2ccccc2)c(=O)c2cc(C(=O)OCc3ccc(OCc4ccccc4)cc3)sc21` [Example 187, 3-Benzyl-1-methyl-2,4-dioxo-1,2,3,4-tetrahydro-thieno[2,3-d]pyrimidine-6-carboxylic acid 4-benzyloxy-benzyl ester]: the IC50 was above 100 µM.
For `COc1cccc(CNC(=O)c2cc3c(=O)n(CCc4cccc5ccccc45)c(=O)n(C)c3s2)c1` [Example 285], the IC50 is 30 µM.
Next, `Cn1c(=O)n(Cc2ccccc2)c(=O)c2cc(C(=O)NCCc3ccccc3)sc21` [Example 214, 3-Benzyl-1-methyl-2,4-dioxo-1,2,3,4-tetrahydro-thieno[2,3-d]pyrimidine-6-carboxylic acid phenethyl-amide]: 20 µM; `Cn1c(=O)n(Cc2ccccc2)c(=O)c2cc(C(=O)OCc3ccccc3C(F)(F)F)sc21` [Example 169, 3-Benzyl-1-methyl-2,4-dioxo-1,2,3,4-tetrahydro-thieno[2,3-d]pyrimidine-6-carboxylic acid 2-trifluoromethyl-benzyl ester]: 30 µM; `COc1cccc(CNC(=O)c2cc3c(=O)n(CC4CCCCC4)c(=O)n(C)c3s2)c1` [Example 69, 3-Cylcohexylmethyl-1-methyl-2,4-dioxo-1,2,3,4-tetrahydro-thieno[2,3-d]pyrimidine-6-carboxylic acid-3methoxy-benzylamide]: 0.057 µM.
Next, `Cn1c(=O)n(Cc2ccccc2)c(=O)c2cc(C(=O)NCc3ccc(C(F)(F)F)cc3)sc21` [Example 212, 3-Benzyl-1-methyl-2,4-dioxo-1,2,3,4-tetrahydro-thieno[2,3-d]pyrimidine-6-carboxylic acid 4-trifluoromethyl-benzylamide]: 0.67 µM; `Cc1c(C(=O)OCc2ccccc2)sc2[nH]c(=O)n(-c3ccc([N+](=O)[O-])cc3)c(=O)c12` [Example 8, 5-Methyl-3-(4-nitro-phenyl)-2,4-dioxo-1,2,3,4-tetrahydro-thieno[2,3-d]-6-carboxylic acid benzyl ester]: 15 µM.
In the case of `COc1cccc(CNC(=O)c2cc3c(=O)n(CC[C@@H](C)CCC=C(C)C)c(=O)n(C)c3s2)c1` [Example 280], the 50% inhibitory concentration (IC50) turned out to be 17 µM.
As for `COc1ccc(CNC(=O)c2cc3c(=O)n(CCN)c(=O)n(C)c3s2)cc1` [Example 235, 3-(2-aminoethyl)-1-methyl-2,4-dioxo-1,2,3,4-tetrahydro-thieno[2,3-d]pyrimidine-6-carboxylic acid 4-methoxy-benzylamide], the 50% inhibitory concentration (IC50) came to 18 µM.
Next, `CCC(C)n1c(=O)c2cc(C(=O)NCc3ccc(OC)cc3)sc2n(C)c1=O` (stereo not drawn) [Example 262]: 3.4 µM.
As for `COc1cccc(CNC(=O)c2cc3c(=O)n(CCOc4ccccc4)c(=O)n(C)c3s2)c1` [Example 297], the IC50 was 0.057 µM.
Next, `Cn1c(=O)n(Cc2ccccc2)c(=O)c2cc(C(=O)NCc3ccccc3)sc21` [Example 11, 3-Benzyl-1-methyl-2,4-dioxo-1,2,3,4-tetrahydro-thieno[2,3-d]pyrimidine-6-carboxylic acid benzyl amide]: 0.47 µM; `COc1ccc(CNC(=O)c2cc3c(=O)n(CCOc4ccc(Br)cc4)c(=O)n(C)c3s2)cc1` [Example 273]: 0.059 µM.
In the case of `Cn1c(=O)n(Cc2ccc(C(=O)O)cc2)c(=O)c2cc(C(=O)NCc3ccncc3)sc21` [Example 51, 4-{1-Methyl-2,4-dioxo-6-[(pyridin-4-ylmethyl)-carbamoyl]-1,4-dihydro-2H-thieno[2,3-d]pyrimidin-3-ylmethyl}-benzoic acid; compound with trifluoro-acetic acid], the IC50 turned out to be 0.0205 µM.
Consider `Cn1c(=O)n(Cc2ccc(C(=O)O)cc2)c(=O)c2cc(C(=O)NCc3ccc(S(C)(=O)=O)cc3)sc21` [Example 81, 4-[6-(4-Methanesulfonyl-benzylcarbamoyl)-1-methyl-2,4-dioxo-1,4-dihydro-2H-thieno[2,3-d]pyrimidin-3-ylmethyl]-benzoic acid], for which the concentration for half-maximal inhibition (IC50) was found to be 3.9 µM.
For the compound “3-Benzyl-1-methyl-2,4-dioxo-1,2,3,4-tetrahydro-thieno[2,3-d]pyrimidine-6-carboxylic acid 2,2,2-trifluoro-1-trifluoromethyl-ethyl ester [Example 168]”, the IC50 was found to be 25 µM.
Next, `C=CCn1c(=O)c2cc(C(=O)OCc3ccccc3)sc2n(C)c1=O` [Example 129, 3-Allyl-1-methyl-2,4-dioxo-1,2,3,4-tetrahydro-thieno[2,3-d]pyrimidine-6-carboxylic acid benzyl ester]: 0.16 µM; `Cn1c(=O)n(Cc2ccccc2)c(=O)c2cc(C(=O)OCCOc3ccccc3)sc21` [Example 146, 3-Benzyl-1-methyl-2,4-dioxo-1,2,3,4-tetrahydro-thieno[2,3-d]pyrimidine-6-carboxylic acid 2-phenoxyethyl ester]: 47 µM.
As for `C=C(C)Cn1c(=O)c2cc(C(=O)NCc3ccc(OC)cc3)sc2n(C)c1=O` [Example 263], the IC50 came to 2.15 µM.
Next, `COc1nc2sc(C(=O)OCc3ccccc3)cc2c(=O)n1Cc1ccccc1` [Example 88, 3-Benzyl-2-methoxy-4-oxo-3,4-dihydro-thieno[2,3-d]pyrimidine-6-carboxylic acid benzyl ester]: 3.15 µM; `Cn1c(=O)n(Cc2ccccc2)c(=O)c2cc(C(=O)OCC(Cl)(Cl)Cl)sc21` [Example 171, 3-Benzyl-1-methyl-2,4-dioxo-1,2,3,4-tetrahydro-thieno[2,3-d]pyrimidine-6-carboxylic acid 2,2,2-trichloro-ethyl ester]: 14 µM; `Cn1c(=O)n(Cc2ccccc2)c(=O)c2cc(C(=O)OCc3c(F)c(F)c(F)c(F)c3F)sc21` [Example 72, 3-Benzyl-1-methyl-2,4-dioxo-1,2,3,4-tetrahydro-thieno[2,3-d]pyrimidine-6-carboxylic acid pentafluorophenylmethyl ester]: above 100 µM.
As to `COc1cc(CNC(=O)c2cc3c(=O)n(Cc4ccc([N+](=O)[O-])nc4)c(=O)n(C)c3s2)ccn1` [Example 370, 1-Methyl-3-(6-nitro-pyridin-3-ylmethyl)-2,4-dioxo-1,2,3,4-tetrahydro-thieno[2,3-d]pyrimidine-6-carboxylic acid (2-methoxy-pyridin-4-ylmethyl)-amide], the concentration for half-maximal inhibition (IC50) amounted to 1.17 µM.
Next, `Cn1c(=O)n(Cc2ccccc2)c(=O)c2cc(C(=O)OCCOCc3ccccc3)sc21` [Example 170, 3-Benzyl-1-methyl-2,4-dioxo-1,2,3,4-tetrahydro-thieno[2,3-d]pyrimidine-6-carboxylic acid 2-benzyloxy-ethyl ester]: 0.72 µM.
